Test results taken from patent publication US10179770B2, “Quinolines derivatives as novel anticancer agents” (GENOSCIENCE PHARMA, priority 2013, dated 2019).

Legend:
B16F10 = assay: CellTiter-Glo cell viability assay (example 57); format: cell-based, human; conditions: Mus musculus, B16-F10; B16F10 (Melanoma); Cell Titer-Glo; 72 h
A375 cell line = assay: Combination of XIX-3 and Zelboraf, Bliss independence model; format: cell-based, human; conditions: XIX-3 associated with Zelboraf, 72 h
Method: The human melanoma cell lines A375 cultured in Dulbecco's modified Eagle's medium supplemented with 10% Fetal Bovine Serum and 1% Penicillin-Streptomycin and maintained at 37° C. with 5% CO2.
A375 cells were plated at 800 cells per well onto 96-well plates in 90 μL of media per well and were allowed to grow overnight before the assay. XIX-3 and Zelboraf, a compound used for treatment for BRAF V600E mutation-positive metastatic melanoma, were added at different concentrations (combinations of five concentrations of XIX-3 and six concentrations of Zelboraf) to each well, and cell cultures were incubated for 72 h. Vehicle (H2O) was used as a control, and all compounds were tested in a constant percentage of vehicle. Cell outgrowth was measured using a […] Aqueous One Solution Cell Proliferation Assay (Promega) and a TECAN Sunrise plate reader. […] The effects of drug-drug combinations are evaluated in the Bliss independence model (Prichard M. N. and Shipman C. Jr. Antivir. Res. 1990 (14) 181-205; Prichard, M. L. et al. Antimicrob Agents Chemother 1993 (37) 540-545). The theoretical additive effect is calculated from the dose-response curves of individual compounds by the equation: Z=X+Y(1−X) (7) Where: • Z represents the total inhibition produced by the combination of drugs X and Y. • X and Y represent the inhibition produced by drugs X and Y alone, respectively. […]

Question: `CCN(CC)C1CCN(C(C)c2cc(-c3ccccc3)nc3ccccc23)CC1.Cl.Cl` (centres unmarked) [XIX-3, 2-phenyl-4-{1-[4-(N,N-diethylamino)piperidin-1-yl]-eth-1-yl}quinoline dihydrochloride] was tested. Which EC50 (B16F10) did it give?
Answer: The EC50 was 10 µM.

Question: What about the “Combination effect on cell viability (Bliss independence model)” value (A375 cell line) of the same compound?
Answer: Its value is “additive effect (between −20% to +20% indicates additive effect)”.
